Assays:
[1] = tested on: G93A mutant SOD1 mouse-derived fibroblasts; test: Western blot analysis of ALS animal model-derived fibroblasts; type: cell-based; settings: low or high concentration halofuginone for 24 hours; elevation vs Non-TG fibroblasts (FIG. 5b)
Excerpt: Specifically, primary fibroblasts were isolated from skeletal muscle of 120-day-old non-transformed or G93A mutant SOD1 transgenic mice of Example 4. The excised tissue was placed on 100-mm culture dishes containing HBSS (Hanks' Balanced Salt Solution; Gibco, cat #14175095) and penicillin-streptomycin (Cat #15070-063, Thermo Fisher Scientific) without calcium and magnesium. Muscle tissue was cut on ice blocks. Then, the tissue was cut into 1 mm pieces and enzymatically reacted with 0.2% IV type collagenase (Sigma) at 37° C. for 1 hour. The enzymatic reaction was stopped by the addition of 10 ml of FBS (Gibco). The tissue mixture was centrifuged at 1,800 rpm at 4° C. for 5 min and resuspended with DMEM medium (Welgene) with 10% FBS. Cells were filtered through a 70 μm cell filter (BD Biosciences, San Jose, CA) and incubated in 0.2% gelatin-coated plates with DMEM medium with 10% FBS, 1% penicillin-streptomycin. Then, halofuginone was treated in the same manner as described in Example 1.
Specifically, the lumbar spinal cord or knee joint of the mouse of Example 6 was separated and immediately frozen at −80° C. Each lumbar spinal cord or knee joint was then homogenized and chemically treated to obtain cells. The chemically treated cells, the C2C12 cells of Example 1 or the fibroblasts of Example 5 were dissolved in a RIPA buffer (Thermo, MA, USA) with a protease inhibitor and a phosphatase inhibitor (Roche, IN, USA) and incubated on ice for 30 minutes. After centrifugation of the lysate at 13,000 rpm at 4° C. for 20 min, insoluble substances were removed. Protein concentrations were measured by BCA analysis (Pierce Biotechnology). Equal volumes of cell lysate were loaded onto SDS-PAGE gels for electrophoresis, and transferred onto nitrocellulose membranes (Amersham Protran 0.2 um NC, Amersham Pharmacia Biotech, Piscataway, NJ, USA). The membranes were then blocked with 5% (w/v) skimmilk in 1×TBST for 1 h at room temperature. […] The membranes were then washed, briefly incubated with the SuperSignal West Pico Plus Chemical Substructure (Pierce Biotechnology) according to the manufacturer's procedure, and quantified with an image analyzer (Amersham Pharmacia Biotech, Piscataway, NJ, USA). β-actin was used as an internal control group. The concentration measurement of protein intensity was quantified using Image J (National Institutes of Health). […]

[2] = tested on: G93A mutant SOD1 transgenic mice; test: Range of motion (ROM) of the knee joint in ALS animal model; type: in vivo, mouse; settings: 120 days old; compared to DMSO Non-TG group (DMSO TG significantly reduced)
Experimental: As a control group, non-transgenic mice were injected intraperitoneally (i.p.) with vehicle (DMSO) in the same manner for the same period of time. Specifically, anatomical indicators were used to determine the knee extension angle. Manual knee joint ROM was measured at the end of disease age (120 days) using Random Two-line, a 2D angle analysis system. The mice of Example 6 were anesthetized with 1% isoflurane inhalation, followed by placing them on an acrylic plate and shaving the skin on their hind legs. The femur was fixed to the plate and a constant force extension moment was applied to the knee joint per mouse. Subsequently, markers were attached to greater trochanter, epicondyle of the knee, and lateral malleolus to obtain markers on the imaging. The angle between the axis of the femur (the greater trochanter to the lateral joint space of the knee) and the fibula (the lateral joint space of the knee to the lateral malleolus) was measured as the knee extension ROM. Sixteen mice in each group were analyzed, and the knees of non-transgenic mice injected with DMSO in the group on day 120 were used as controls. Specifically, halofuginone was administered to G93A mutant SOD1 mice in the same manner as described in Example 6, and ROM measurement of the knee joint was performed in the same manner as described in Example 10 (FIG. 8a). […]

O=C(C[C@H]1NCCC[C@@H]1O)Cn1cnc2cc(Br)c(Cl)cc2c1=O (racemic) [halofuginone] was tested, and the “elevated Col-I protein expression” value [1] was “attenuated”, the “elevated TGF-β protein expression” value [1] was “attenuated” and the “elevated p-Smad2/Smad2 ratio” value [1] was “attenuated”. The “elevated α-SMA protein expression” value [1] was “attenuated” and the “range of motion (ROM) of the knee joint” value [2] was “not changed”.

From patent US20240390377A1, “COMPOSITION FOR THE PREVENTION OR TREATMENT OF NEURODEGENERATIVE OR MOTOR NEURON DISEASES COMPRISING HALOFUGINONE AS AN ACTIVE INGREDIENT” (CURAMYS CO., LTD., priority 2022, published 2024)
